Results: PMC10781750, “Structural basis of antiphage immunity generated by a prokaryotic Argonaute-associated SPARSA system” (Nature Communications, 2024)

Assays:
[1] = biological target: T1, SPARSA (GsSir2/pAgo heterodimer) (Geobacter sulfurreducens, UniProt Q74DF6); assay: NADase assay, residual NAD+ by NAD/NADH quantitation kit (absorbance […] nm); format: biochemical; conditions: 1 uM SPARSA, 10 uM NAD+, 2 uM gRNA and tDNA (required for activity), 10 mM HEPES pH 7.5, 125 mM KCl, 37 C
T1 construct: gene GSU1360; full-length GsSir2 and pAgo coexpressed in E. coli BL21(DE3); 6xHis-SPARSA (also His-SUMO version, SUMO cut by TEV); 1:1 heterodimer; with Short prokaryotic Argonaute (Piwi domain-containing protein)
T1 sequence (Q74DF6 1-587): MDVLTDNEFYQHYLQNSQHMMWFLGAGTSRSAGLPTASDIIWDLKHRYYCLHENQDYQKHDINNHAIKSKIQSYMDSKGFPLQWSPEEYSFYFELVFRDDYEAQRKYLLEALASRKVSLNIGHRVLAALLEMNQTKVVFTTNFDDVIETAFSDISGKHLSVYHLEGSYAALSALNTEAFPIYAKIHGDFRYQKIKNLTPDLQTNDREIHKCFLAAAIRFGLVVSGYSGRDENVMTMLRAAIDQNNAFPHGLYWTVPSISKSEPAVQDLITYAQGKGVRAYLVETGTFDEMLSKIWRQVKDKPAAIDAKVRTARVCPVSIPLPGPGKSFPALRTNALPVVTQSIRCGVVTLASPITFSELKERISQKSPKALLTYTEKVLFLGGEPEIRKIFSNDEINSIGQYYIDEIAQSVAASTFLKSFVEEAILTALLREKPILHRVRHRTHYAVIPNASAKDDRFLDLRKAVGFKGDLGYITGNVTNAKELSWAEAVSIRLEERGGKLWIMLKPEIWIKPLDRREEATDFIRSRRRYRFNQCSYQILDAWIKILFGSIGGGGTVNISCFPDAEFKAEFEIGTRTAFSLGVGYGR
T1 sequence (Q74DF5 1-473 partner): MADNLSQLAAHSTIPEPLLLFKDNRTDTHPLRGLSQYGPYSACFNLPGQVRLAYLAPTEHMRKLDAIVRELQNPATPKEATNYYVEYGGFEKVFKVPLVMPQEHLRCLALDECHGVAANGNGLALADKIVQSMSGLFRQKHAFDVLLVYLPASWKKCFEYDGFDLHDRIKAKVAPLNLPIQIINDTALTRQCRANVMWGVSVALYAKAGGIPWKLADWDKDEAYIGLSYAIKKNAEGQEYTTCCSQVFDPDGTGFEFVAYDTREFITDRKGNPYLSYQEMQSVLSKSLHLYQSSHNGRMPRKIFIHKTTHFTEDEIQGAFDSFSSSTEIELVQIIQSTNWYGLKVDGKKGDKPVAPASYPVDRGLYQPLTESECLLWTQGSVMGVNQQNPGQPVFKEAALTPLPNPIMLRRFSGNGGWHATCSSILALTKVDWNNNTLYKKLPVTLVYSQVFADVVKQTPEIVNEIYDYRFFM

[2] = biological target: T1, SPARSA (GsSir2/pAgo heterodimer); assay: cryo-EM structures ([…] A without, […] A with gRNA/tDNA); format: binding; conditions: endogenous NAD+ copurified; bound in Sir2 domain cleft between Rossmann fold and small domain, near N142 and H186; seen without and with gRNA/tDNA

NC(=O)c1ccc[n+]([C@@H]2O[C@H](COP(=O)([O-])OP(=O)(O)OC[C@H]3O[C@@H](n4cnc5c(N)ncnc54)[C@H](O)[C@@H]3O)[C@@H](O)[C@H]2O)c1 [NAD^+]
NADase assay, residual NAD+ by NAD/NADH quantitation kit (absorbance 450 nm) [1]: nearly no NAD^+ remained in the wild-type SPARSA
cryo-EM structures (3.6 A without, 3.1 A with gRNA/tDNA) [2]: a density within the crevice near the catalytic residues N142 and H186 was observed
